# US9688633B2, “Substituted piperidines with antiparasitic activity” (INSTITUT DE RECHERCHE POUR LE DEVELOPPEMENT, priority 2014, dated 2017)
# pIC50: −log10 of the molar value. Where two headings read alike, the source gives them in different places.
# Key:
# [1] = system: Plasmodium falciparum FCR-3; assay: In vitro antiplasmodial drug assay ([3H]-hypoxanthine incorporation); type: cell-based
# Experimental: The drugs dissolved in dimethylsulfoxide (DMSO) were added at final concentrations ranging from 200 to 0.1 μM. All experiments were performed in triplicate. The final DMSO concentration was never greater than 0.1%. […].
# % Inhibition of the incorporation of labeled hypoxanthine=100−(P/T*100),
# P: c.p.m. for every concentration, and
# T: negative control (red blood cells without drug).
# [2] = system: VERO cells; assay: Toxicity assay, MTT viability on VERO cells; type: cell-based, African Green Monkey; details: VERO cells survival, 48 hours, MTT; average of three independent determinations; read-out: TC50 (the source's name)
# Experimental: (§1) Drugs were added at different concentrations and the cells were cultured for 48 hours. The effect was determined using the 3-(4,5-dimethylthiazol-2-yl)-2,5-diphenyltetrazolium bromide (MTT) viability assay. Four hours after the addition of MTT, 100 μl of lysis buffer (50% isopropanol, 30% water, 20% SDS) were added and the cells were incubated at room temperature for 15 min under agitation. Finally, optical density was read at 590 nm with a 96-well scanner (Bio-Rad). All experiments were performed in triplicate.
# [3] = system: P. berghei ANKA; assay: In vivo antiplasmodial drug assay (4-day suppressive test) in murine model; details: Swiss male mice, 4 consecutive days, read on day 4
# Experimental: The antiplasmodial activity of Compound 7 was tested in vivo in a murine model. The antiplasmodial activity of a Compound A representative of the prior art was also tested: Studies were conducted according to the French and Colombian guidelines on laboratory animal use and care (No 2001-464 and No 008430, respectively). The classical 4-day suppressive test was carried out (W. Peters, Chemotherapy and drug resistance in malaria, Academic Press: London, 1970). Swiss male mice weighing 20±2 g, were infected with 10^7 P. berghei ANKA parasitized cells (day 0). […] […] Survival of the mice was checked daily and the percentage of parasitized erythrocytes was determined on day 4, by Giemsa-stained thin blood smears made from peripheral blood. The percentage of inhibition of parasitaemia was calculated.
# [4] = Toxicity assay, MTT viability on VERO cells; type: cell-based, African Green Monkey; details: African green monkey
# Experimental: as §1
# [5] = system: mice; assay: Cytotoxicity (toxicity) after administration in a malaria murine model; type: in vivo, mouse; details: 50 mg·kg^-1, malaria murine model
# Experimental: The cytotoxicity of Compound 7 was compared to the cytotoxicity of Compound 31 of the publication of Silvia Perez-Silanes et al., Molecules 2009, 14, 4120-4135, the compounds only differentiated by the nature of the Ar group (4-fluoro-1-phenyl group vs benzo[b]thiophenyl).
# Both compounds were administered at 50 mg·kg^−1 in a malaria murine model.
# [6] = chloroquine-resistant FCR-3 strain, 50% of Plasmodium falciparum growth, average of three independent determinations, read-out: IC50
# [7] = FCR3, chloroquine-resistant FCR-3 strain, 50% of Plasmodium falciparum growth, average of three independent determinations, read-out: IC50
compound,measurement,setting,value
"3-[4-(4-fluorophenyl)-3,6-dihydropyridin-1(2H)-yl]-1-(4-(trifluoromethyl phenyl)propan-1-ol) [Compound 4]",pIC50,[1]; [6],5.25
same,CC50,[2],> 100 µM
"CCN(CC)CCCC(C)Nc1ccnc2cc(Cl)ccc12 (stereo not drawn) [CQ, chloroquine, reference compound]",percentage of inhibition of parasitaemia,[3]; 3 mg/kg/day oral,65%
same,pIC50,"[1]; Plasmodium falciparum, FCR3",6.89
"OC(CCN1CC=C(c2ccc(F)cc2)CC1)c1ccc2ccccc2c1 (stereo not drawn) [Compound 3, 3-[4-(4-fluorophenyl)-3,6-dihydropyridin-1(2H)-yl]-1-(naphthalen-2-yl)propan-1-ol]",melting point,,127 to 129 °C
same,pIC50,[1]; [7],4.44
same,CC50 at 48 h,[4],> 100 µM
"O=[N+]([O-])c1ccc(N2CCC(NCCC(O)c3ccc(F)c4ccccc34)CC2)c(C(F)(F)F)c1 (stereo not drawn) [Compound 5, 1-(4-fluoronaphthalen-1-yl)-3-((1-(4-nitro-2-(trifluoromethyl)phenyl)piperidin-4-yl)amino)propan-1-ol]",pIC50,[1]; [7],6.82
same,CC50 at 48 h,"[4]; VERO cells (kidney epithelial cells), VERO cells survival, 48 hours, MTT, average of three independent determinations, read-out: TC50",5.5 µM
"OC(CCN1CC=C(c2ccc(F)cc2)CC1)c1ccc(F)c2ccccc12 (stereo not drawn) [Compound 6, 1-(4-fluoronaphthalen-1-yl)-3-[4-(4-fluorophenyl)-3,6-dihydropyridin-1(2H)-yl]propan-1-ol]",pIC50,[1]; [7],6.40
same,CC50 at 48 h,[4],> 50 µM
Cl.O=[N+]([O-])c1ccc(N2CCC(NCCC(O)c3ccc(F)cc3)CC2)c(C(F)(F)F)c1 (stereo not drawn) [Compound 7],cytotoxicity after administration,[5],No cytotoxicity was detected
same,percentage of inhibition of parasitaemia,[3]; 50 mg/kg/day oral,76%
same,pIC50,[1]; [6],6.32
same,CC50,[2],30.2 µM
"OC(CCN1CC=C(c2ccc(F)cc2)CC1)c1ccc(F)cc1 (stereo not drawn) [Compound 8, 1-(4-fluorophenyl)-3-[4-(4-fluorophenyl)-3,6-dihydropyridin-1 (2H)-yl]propan-1-ol]",melting point,,199 to 201 °C
same,pIC50,[1]; [7],6.18
same,CC50 at 48 h,[4],> 100 µM
